Experimental findings from publication PMC6130490, “Inhibition of key enzymes linked to type 2 diabetes by compounds isolated from Aframomum melegueta fruit” (Pharmaceutical Biology, 2017) are described below.

Holding throughout (format): biochemical
Experiment [1] concerns the target T1, Saccharomyces cerevisiae α-glucosidase (E.C. 3.2.1.20) (Saccharomyces cerevisiae, UniProt P53341).
T1 construct: purchased Sigma-Aldrich through Capital Lab Supplies
As to the kind of experiment: α-Glucosidase inhibitory effect (pNPG method). How it is done:
(§1) Saccharomyces cerevisiae α-glucosidase (E.C. 3.2.1.20), porcine pancreatic α-amylase (E.C. 3.2.1.1), p-nitrophenyl glucopyranoside (pNPG) and p-nitrophenol were obtained from Sigma-Aldrich through Capital Lab Supplies, New Germany, South Africa. Starch, dinitrosalicylic acid (DNS), maltose, absolute ethanol and ethyl acetate were obtained from Merck Chemical Company, Durban, South Africa.
(§2) The 5.0 mM p-nitrophenyl glucopyranoside (pNPG) substrate solution was prepared in 20 mM phosphate buffer, pH 6.9. […] Thereafter, 250 μL of 5.0 mM pNPG was dissolved in 20 mM phosphate buffer (pH 6.9) as a substrate to start the reaction. The reaction mixture was incubated at 37 °C for 30 min.

The target of experiment [2] is T2, porcine pancreatic α-amylase (E.C. 3.2.1.1) (Sus scrofa, UniProt P00690).
T2 construct: purchased Sigma-Aldrich through Capital Lab Supplies
T2 sequence (P00690 16-511): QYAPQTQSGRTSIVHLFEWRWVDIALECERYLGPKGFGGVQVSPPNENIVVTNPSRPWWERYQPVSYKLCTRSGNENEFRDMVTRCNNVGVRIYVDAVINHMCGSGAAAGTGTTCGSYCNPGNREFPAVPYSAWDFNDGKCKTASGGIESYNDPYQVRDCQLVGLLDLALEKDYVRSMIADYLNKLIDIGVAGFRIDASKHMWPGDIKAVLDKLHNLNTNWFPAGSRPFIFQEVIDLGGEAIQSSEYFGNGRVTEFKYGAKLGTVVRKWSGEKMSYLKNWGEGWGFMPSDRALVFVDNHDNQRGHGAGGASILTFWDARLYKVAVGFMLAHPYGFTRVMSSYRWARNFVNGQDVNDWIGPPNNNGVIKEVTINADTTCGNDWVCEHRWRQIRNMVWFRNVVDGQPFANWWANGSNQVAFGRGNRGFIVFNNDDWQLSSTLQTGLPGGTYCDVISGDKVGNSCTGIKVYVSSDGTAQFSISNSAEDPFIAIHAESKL
Kind of experiment: Mechanism of α-amylase inhibition (Lineweaver-Burke kinetics). The note with it: compound 30 μg/mL; for type of inhibition of α-amylase: Lineweaver-Burke plot; for KM, α-amylase inhibition / Ki / Vmax, α-amylase inhibition: starch 0.063–1.0%. How it is done:
(§3) This solution was pre-incubated at 25 °C for 10 min, after which 250 μL of 1% starch solution in 0.02 M sodium phosphate buffer (pH 6.9) was added at a time interval of 10 s and then further incubated at 25 °C for 10 min. The reaction was terminated after incubation by adding 1 mL of dinitrosalicylic acid (DNS) reagent. The tube was then boiled for 10 min and cooled to room temperature. […] A control was prepared using the same procedure using distilled water instead of the compound.
(§4) The isolated compounds were subjected to kinetic experiments to determine the type of inhibition exerted on α-amylase and α-glucosidase. The experiment was conducted according to the protocols mentioned above at a constant concentration of the compounds (30 μg/mL) with a variable concentration of substrate. […] The initial velocity data obtained were used to construct Lineweaver-Burke plots to determine the K M (Michaelis constant) and v max (maximum velocity) of the enzyme as well as the Ki (inhibition binding constant as a measure of affinity of the inhibitor to the enzyme) and the type of inhibition for both enzymes.

For experiment [3], the target named is T1, Saccharomyces cerevisiae α-glucosidase (E.C. 3.2.1.20). As to the kind of experiment: biochemical. As to conditions: for type of inhibition of α-glucosidase: Lineweaver-Burke plot. Here is the method: as §2, §4
Experiment [4] concerns the target T2, porcine pancreatic α-amylase (E.C. 3.2.1.1). Kind of experiment: α-Amylase inhibitory effect (starch/DNS method). The note with it: mean ± SD of triplicate; compounds tested at 30–240 μg/mL; read-out: IC50 α-amylase inhibition. How it is done:
as §1, §3

[5] abbreviates: compound 30 μg/mL, pNPG 0.313–5.0 mM.
The mark [6] stands for this setting: mean ± SD of triplicate, compounds tested at 30–240 μg/mL, read-out: IC50 α-glucosidase inhibition.
The mark [7] stands for this setting: compound 30 μg/mL, pNPG 0.313–5.0 mM, read-out: Ki, α-glucosidase inhibition (converted).

Read-outs that look alike come from different tables or passages of the source.

T1 sequence (P53341 whole entry): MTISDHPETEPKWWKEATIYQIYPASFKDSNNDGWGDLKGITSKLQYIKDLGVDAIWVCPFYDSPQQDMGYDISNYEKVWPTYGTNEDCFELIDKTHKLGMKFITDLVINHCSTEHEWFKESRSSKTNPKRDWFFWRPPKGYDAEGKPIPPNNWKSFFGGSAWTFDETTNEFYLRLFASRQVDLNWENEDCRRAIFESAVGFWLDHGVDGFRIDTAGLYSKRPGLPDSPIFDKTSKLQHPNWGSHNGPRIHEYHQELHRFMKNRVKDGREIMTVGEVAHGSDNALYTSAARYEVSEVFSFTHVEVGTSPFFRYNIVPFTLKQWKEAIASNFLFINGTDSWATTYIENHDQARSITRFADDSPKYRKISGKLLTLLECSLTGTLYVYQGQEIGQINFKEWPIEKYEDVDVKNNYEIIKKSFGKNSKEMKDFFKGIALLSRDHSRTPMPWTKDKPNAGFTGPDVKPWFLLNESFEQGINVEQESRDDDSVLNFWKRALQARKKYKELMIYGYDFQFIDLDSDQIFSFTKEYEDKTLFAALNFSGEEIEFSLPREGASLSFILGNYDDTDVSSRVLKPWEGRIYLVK

For orientation: IC50 means the concentration that gives 50% inhibition. For orientation: Ki means a dissociation constant, usually derived from enzyme kinetics or from competition with a known ligand. In turn, `CCCCC[C@H](O)CC(=O)CCc1ccc(O)c(OC)c1` [6-Gingerol (3), 6-gingerol] yielded an IC50 in experiment [1] of 21.5 ± 0.45 µM. In experiment [2], the “type of inhibition of α-amylase” value is reported as “noncompetitive”; the “KM, α-amylase inhibition” value is listed as 0.06%; the Ki was 89.9 µM; the “Vmax, α-amylase inhibition” value is 16.73 µmol/min. Besides, the Ki in experiment [3] was 26.6 µM. The “type of inhibition of α-glucosidase” value in experiment [3] (compound 30 μg/mL) is on record as “noncompetitive”. For the same compound, the “Vmax, α-glucosidase inhibition” value in experiment [3] (setting [5]) turned out to be 123.10 µmol/min. In experiment [4], the IC50 was found to be 81.8 ± 7.79 µM.
Consider `CC1(C)CC[C@]2(C(=O)O)CC[C@]3(C)C(=CC[C@@H]4[C@@]5(C)CC[C@H](O)C(C)(C)[C@@H]5CC[C@]43C)[C@@H]2C1` [Oleanolic acid (4), oleanolic acid], for which the “Vmax, α-glucosidase inhibition” value in experiment [3] (setting [5]) was 64.20 µmol/min.
`CCCCCCCC(=O)CCc1ccc(O)c(OC)c1` [6-Paradol (1), 6-paradol]: the IC50 in experiment [1] (setting [6]) worked out at 243 ± 6.65 µM. Also, in experiment [2], the “type of inhibition of α-amylase” value was “noncompetitive”; the “KM, α-amylase inhibition” value is 0.06%; the Ki was 83.7 µM; the “Vmax, α-amylase inhibition” value is 15.60 µmol/min. Besides, the “type of inhibition of α-glucosidase” value in experiment [3] (compound 30 μg/mL) is “noncompetitive”. Besides, the “Vmax, α-glucosidase inhibition” value in experiment [3] (setting [5]) worked out at 81.20 µmol/min. In addition, the Ki in experiment [3] (setting [7]) was 22.4 µM. Moreover, in experiment [4], the IC50 turned out to be 665 ± 11.6 µM.
`CCCCC/C=C/C(=O)CCc1ccc(O)c(OC)c1` [6-Shagaol (2), 6-shogaol]: the IC50 in experiment [1] (setting [6]) stood at 326 ± 5.6 µM. For the same compound, in experiment [2], the “type of inhibition of α-amylase” value is “mixed”; the “KM, α-amylase inhibition” value amounted to 0.09%; affinity was put at a Ki of 226 µM; the “Vmax, α-amylase inhibition” value amounted to 24.10 µmol/min. The “Vmax, α-glucosidase inhibition” value in experiment [3] (setting [5]) was determined as 55.70 µmol/min. For the same compound, the Ki in experiment [3] (setting [7]) was 14.5 µM. The IC50 in experiment [4] was determined as 443.2 ± 1.38 µM.
